Measurements: PubChem BioAssay (NCI)
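All cell lines were grown in 96-well plates and treated with compound for 48 hours. The concentration for full growth arrest is given as TGI.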

Key:
Assay in all cases: NCI tumour cell line growth inhibition, 48 h
[1] = tested on: 786-0 renal
[2] = tested on: A498 renal
[3] = tested on: A549 NSCLC
[4] = tested on: ACHN renal
[5] = tested on: BT-549 breast
[6] = tested on: CAKI-1 renal
[7] = tested on: CCRF-CEM leukemia
[8] = tested on: COLO 205 colon
[9] = tested on: DU-145 prostate
[10] = tested on: EKVX NSCLC
[11] = tested on: HCT-116 colon
[12] = tested on: HCT-15 colon
[13] = tested on: HL-60(TB) leukemia
[14] = tested on: HOP-62 NSCLC
[15] = tested on: HS 578T breast
[16] = tested on: HT29 colon
[17] = tested on: IGROV1 ovarian
[18] = tested on: K-562 leukemia
[19] = tested on: KM12 colon
[20] = tested on: LOX IMVI melanoma
[21] = tested on: M14 melanoma
[22] = tested on: MALME-3M melanoma
[23] = tested on: MCF7 breast
[24] = tested on: MDA-MB-231 breast
[25] = tested on: MDA-MB-435
[26] = tested on: MDA-N
[27] = tested on: MOLT-4 leukemia
[28] = tested on: NCI-H226 lung
[29] = tested on: NCI-H23 lung
[30] = tested on: NCI-H460 lung
[31] = tested on: NCI-H522 lung
[32] = tested on: NCI/ADR-RES ovarian
[33] = tested on: OVCAR-3 ovarian
[34] = tested on: OVCAR-4 ovarian
[35] = tested on: OVCAR-5 ovarian
[36] = tested on: OVCAR-8 ovarian
[37] = tested on: PC-3 prostate
[38] = tested on: RPMI-8226 leukemia
[39] = tested on: RXF 393 renal
[40] = tested on: SF-268 CNS
[41] = tested on: SF-295 CNS
[42] = tested on: SF-539 CNS
[43] = tested on: SK-MEL-2 melanoma
[44] = tested on: SK-MEL-28 melanoma
[45] = tested on: SK-MEL-5 melanoma
[46] = tested on: SK-OV-3 ovarian
[47] = tested on: SN12C renal
[48] = tested on: SNB-19 CNS
[49] = tested on: SNB-75 CNS
[50] = tested on: SR leukemia
[51] = tested on: SW-620 colon
[52] = tested on: T-47D breast
[53] = tested on: TK-10 renal
[54] = tested on: U251 CNS
[55] = tested on: UACC-257 melanoma
[56] = tested on: UACC-62 melanoma
[57] = tested on: UO-31 renal
[58] = tested on: HCC-2998 colon
[59] = tested on: HOP-92 NSCLC

Q: How did the TGI [1] turn out when `Cn1c(=O)c2[nH]c(CS(=O)(=O)Cc3nc4c([nH]3)c(=O)n(C)c(=O)n4C)nc2n(C)c1=O` was run?
A: > 100 µM

Q: What about the TGI [2] of the same compound?
A: > 100 µM

Q: What about the TGI [3] of the same compound?
A: > 100 µM

Q: What about the TGI [4] of the same compound?
A: > 100 µM

Q: What about the TGI [5] of the same compound?
A: > 100 µM

Q: What about the TGI [6] of the same compound?
A: > 100 µM

Q: What about the TGI [7] of the same compound?
A: > 100 µM

Q: And the TGI [8]?
A: > 100 µM

Q: And the TGI [9]?
A: > 100 µM

Q: What about the TGI [10] of the same compound?
A: > 100 µM

Q: And the TGI [11]?
A: > 100 µM

Q: And the TGI [12]?
A: > 100 µM

Q: And the TGI [13]?
A: > 100 µM

Q: What about the TGI [14] of the same compound?
A: > 100 µM

Q: What about the TGI [15] of the same compound?
A: > 100 µM

Q: And the TGI [16]?
A: > 100 µM

Q: What about the TGI [17] of the same compound?
A: > 100 µM

Q: What about the TGI [18] of the same compound?
A: > 100 µM

Q: What about the TGI [19] of the same compound?
A: > 100 µM

Q: What about the TGI [20] of the same compound?
A: > 100 µM

Q: And the TGI [21]?
A: > 100 µM

Q: What about the TGI [22] of the same compound?
A: > 100 µM

Q: What about the TGI [23] of the same compound?
A: > 100 µM

Q: What about the TGI [24] of the same compound?
A: > 100 µM

Q: What about the TGI [25] of the same compound?
A: > 100 µM

Q: And the TGI [26]?
A: > 100 µM

Q: And the TGI [27]?
A: > 100 µM

Q: And the TGI [28]?
A: > 100 µM

Q: What about the TGI [29] of the same compound?
A: > 100 µM

Q: And the TGI [30]?
A: > 100 µM

Q: And the TGI [31]?
A: > 100 µM

Q: What about the TGI [32] of the same compound?
A: > 100 µM

Q: What about the TGI [33] of the same compound?
A: > 100 µM

Q: And the TGI [34]?
A: > 100 µM

Q: What about the TGI [35] of the same compound?
A: > 100 µM

Q: And the TGI [36]?
A: > 100 µM

Q: What about the TGI [37] of the same compound?
A: > 100 µM

Q: What about the TGI [38] of the same compound?
A: > 100 µM

Q: And the TGI [39]?
A: > 100 µM

Q: What about the TGI [40] of the same compound?
A: > 100 µM

Q: What about the TGI [41] of the same compound?
A: > 100 µM

Q: And the TGI [42]?
A: > 100 µM

Q: What about the TGI [43] of the same compound?
A: > 100 µM

Q: What about the TGI [44] of the same compound?
A: > 100 µM

Q: What about the TGI [45] of the same compound?
A: > 100 µM

Q: What about the TGI [46] of the same compound?
A: > 100 µM

Q: What about the TGI [47] of the same compound?
A: > 100 µM

Q: What about the TGI [48] of the same compound?
A: > 100 µM

Q: What about the TGI [49] of the same compound?
A: > 100 µM

Q: What about the TGI [50] of the same compound?
A: > 100 µM

Q: And the TGI [51]?
A: > 100 µM

Q: What about the TGI [52] of the same compound?
A: > 100 µM

Q: What about the TGI [53] of the same compound?
A: > 100 µM

Q: What about the TGI [54] of the same compound?
A: > 100 µM

Q: And the TGI [55]?
A: > 100 µM

Q: And the TGI [56]?
A: > 100 µM

Q: And the TGI [57]?
A: > 100 µM

Q: How did the TGI [1] turn out when `CC(=O)N1c2ccccc2Sc2cc(C(O)(C(F)(F)F)C(F)(F)F)ccc21` was run?
A: > 10 µM

Q: And the TGI [2]?
A: > 10 µM

Q: And the TGI [3]?
A: > 10 µM

Q: What about the TGI [4] of the same compound?
A: > 10 µM

Q: And the TGI [5]?
A: > 10 µM

Q: What about the TGI [6] of the same compound?
A: > 10 µM

Q: What about the TGI [7] of the same compound?
A: > 10 µM

Q: What about the TGI [8] of the same compound?
A: > 10 µM

Q: And the TGI [9]?
A: > 10 µM

Q: And the TGI [10]?
A: > 10 µM

Q: What about the TGI [58] of the same compound?
A: > 10 µM

Q: What about the TGI [11] of the same compound?
A: > 10 µM

Q: What about the TGI [12] of the same compound?
A: > 10 µM

Q: What about the TGI [13] of the same compound?
A: > 10 µM

Q: And the TGI [14]?
A: > 10 µM

Q: And the TGI [59]?
A: > 10 µM

Q: And the TGI [15]?
A: > 10 µM

Q: And the TGI [16]?
A: > 10 µM

Q: What about the TGI [17] of the same compound?
A: > 10 µM

Q: What about the TGI [18] of the same compound?
A: > 10 µM

Q: What about the TGI [19] of the same compound?
A: > 10 µM

Q: What about the TGI [20] of the same compound?
A: > 10 µM

Q: And the TGI [21]?
A: > 10 µM

Q: What about the TGI [22] of the same compound?
A: > 10 µM

Q: And the TGI [23]?
A: > 10 µM

Q: And the TGI [24]?
A: > 10 µM

Q: What about the TGI [25] of the same compound?
A: > 10 µM

Q: And the TGI [26]?
A: > 10 µM

Q: What about the TGI [27] of the same compound?
A: > 10 µM

Q: And the TGI [28]?
A: > 10 µM

Q: And the TGI [29]?
A: > 10 µM

Q: And the TGI [30]?
A: > 10 µM

Q: And the TGI [31]?
A: > 10 µM

Q: What about the TGI [32] of the same compound?
A: > 10 µM

Q: And the TGI [33]?
A: > 10 µM

Q: What about the TGI [34] of the same compound?
A: > 10 µM

Q: What about the TGI [35] of the same compound?
A: > 10 µM

Q: And the TGI [36]?
A: > 10 µM

Q: And the TGI [37]?
A: > 10 µM

Q: What about the TGI [39] of the same compound?
A: > 10 µM

Q: What about the TGI [40] of the same compound?
A: > 10 µM

Q: What about the TGI [41] of the same compound?
A: > 10 µM

Q: And the TGI [42]?
A: > 10 µM

Q: What about the TGI [43] of the same compound?
A: > 10 µM

Q: What about the TGI [44] of the same compound?
A: > 10 µM

Q: And the TGI [45]?
A: > 10 µM

Q: And the TGI [46]?
A: > 10 µM

Q: And the TGI [47]?
A: > 10 µM

Q: And the TGI [48]?
A: > 10 µM

Q: What about the TGI [49] of the same compound?
A: > 10 µM

Q: And the TGI [51]?
A: > 10 µM

Q: And the TGI [52]?
A: > 10 µM

Q: And the TGI [53]?
A: > 10 µM

Q: What about the TGI [54] of the same compound?
A: > 10 µM

Q: What about the TGI [55] of the same compound?
A: > 10 µM

Q: What about the TGI [56] of the same compound?
A: > 10 µM

Q: And the TGI [57]?
A: > 10 µM
